“Also recorded” adds a separate entry of the source.
Assays:
JNK2 and p38 = assay: Nuclear translocation of other MAPKs (fluorescence microscopy); type: cell-based; conditions: HeLa cells; TPA or anisomycin
Experimental: HeLa cells were serum-starved, pretreated with the EPE or Scr peptides, and then stimulated with either TPA (250 nM, 15 min), anisomycin (Anis, 10 μg/ml, 15 min) for the indicated times, or left untreated as control (NT). The cells were stained with αp38 or αgJNK Abs and DAPI. Scale bar—15 μm. (B) Extracts from cells treated as in A were analyzed by Western blotting with the indicated Abs.
Cells were fixed in 3% paraformaldehyde in PBS (20 min, 23° C.), and then permeabilized and blocked with 0.2% Triton X-100 in PBS-BSA (2%) for 20 min at 23° C. The fixed cells were sequentially incubated with appropriated Abs, (diluted in 10 μg/ml BSA/PBS) for 1 h, followed by either Cy-2 or rhodamine-conjugated secondary Abs and DAPI (diluted in BSA/PBS, 1:200) for 1 h. To follow the subcellular localization of the biotin-conjugated peptides, cells were incubated with Avidin-FITC (diluted in BSA/PBS 1:400) and DAPI. Slides were analyzed and photographed by a fluorescent microscope (Nikon, Japan, 600× magnification).

[1] = molecular target: T1, interaction of Imp7 with ERK (Homo sapiens, UniProt O95373); assay: Coimmunoprecipitation of Imp7 with ERK; type: cell-based; conditions: HeLa cells; 10 μM, 2 hours; TPA
T1 construct: endogenous in cells; host or cells: HeLa
Experimental: (§1) (A) EPE peptide prevents ERK1/2-importin7 interaction. HeLa cells were serum starved (0.1%, 16 hours), pretreated with EPE peptide, scrambled peptide (10 μM, 2 hours) or DMSO, and then stimulated with TPA (250 nM, 15 min). ERK1 were precipitated with αgERK1 Ab; importin7 co-immunoprecipitated with ERK1 was detected by WB with αimportin7 Ab. […] T47D, HeLa, MDA-MB-231 and A2352 cells were serum starved (0.1%, 16 hours), pretreated with EPE peptide, scrambled peptide (10 μM, 2 hours) or DMSO control, and then stimulated with TPA (250 nM, indicated times). Cell extracts were subjected to Western blot analysis with the indicated Abs. (C) EPE peptide inhibits phosphorylation of c-Myc and Elk1 in B-Raf melanomas. A2158 and A2352 cells were treated with scrambled and EPE peptide for two hours and then stimulated with the indicated concentration of TPA for 30 min. […] (D) Quantification of some of the results in B and C. […]
(§2) (i) Preparation of cellular extracts for Western Blotting: Cells were rinsed twice with ice-cold PBS and scraped into Radio-immunoprecipitation assay buffer (RIPA; 137 mM NaCl, 20 mM Tris (pH 7.4), 10% glycerol, 1% Triton X-100, 0.5% deoxycholate, 0.1% SDS, 2 mM EDTA, 1 mM PMSF, and 20 μM leupeptin). The extracts were centrifuged (20,000×g, 15 min, 4° C.), and the supernatants were further analyzed by Western blotting. […]

ERK1/2 = assay: Western blotting of ERK phosphorylation (TEY, NTS); type: cell-based
Experimental: as §1, §2

RSK = assay: Western blotting of RSK phosphorylation; type: cell-based; conditions: four distinct cell lines
Experimental: as §1, §2

AKT = assay: Western blotting of AKT phosphorylation; type: cell-based
Experimental: as §1, §2

[2] = system: low passage A2352 B-Raf melanoma xenograft; assay: Tumor xenograft growth; type: in vivo, SCID mice; conditions: tail vein administration
Experimental: FIGS. 6A-6B illustrate that the EPE peptide prevents the growth of human tumor xenografts. CD-1 nude mice were inoculated with MDA-MB-231, LOXIMVI and HCT-116 cells, and SKID mice were inoculated with A2352 cells. Upon tumors establishment, the mice were treated intravenously with the DMSO as well as EPE or Scr peptides in the indicated doses, 3 times a week. The results are averages of 5 mice in each experimental group. The X, Y, Z dimensions of the tumors were measured with a caliper, and the volume was calculated accordingly. The significance of all experiments was at least P<0.001. (B) The EPE peptide prevents tumor recurrence on melanoma xenograft. SCID mice were inoculated with A2352 cells. Upon establishment of tumors mice were treated intravenously with 15 mg/kg EPE peptide (n=7) or intraperitonealy with 15 mg/kg PLX4032 (n=5), at the indicated dose 3 times a week. Tumor size was recorded at the same time using a caliper. Following 3 weeks of treatment, mice were kept for further evaluation monitoring for any tumor recurrence of the effective treated melanoma xenografts. Experiment was concluded 110 days post inoculation (11 weeks after the last treatment) and the overall state of the animals was evaluated. sac=sacrificed, recur=recurrence, met=metastasis.
Tumor dimensions were measured with a digital sliding caliper.

[3] = mouse, in vivo
Experimental: Female SCID mice (Harlan), 5-6 weeks of age, were inoculated s.c. into the flank region with 10^7 A2352 cells in 150 μl mixture of PBS with matrigel (2:1). Tumors were allowed to develop to the size of 5-6.5 mm in diameter (50˜110 mm^3 volume) and then the animals were randomly allocated to different treatment groups. The peptides (100 mM stock in DMSO), were diluted to the necessary concentration in PBS and boiled for 5 minutes. Then, DMSO, Scr or EPE peptides were administered by i.v. injection into the tail vein (150 μl/mouse, 3 times a week). Tumor dimensions were measured with a digital sliding caliper. Tumor volume was calculated using the formula: V=D1×D2×D3×π/6, where D1, D2, D3—represent the three mutually orthogonal growth diameters. To assess any signs of systemic toxicity, body weight was monitored, and recorded at the end of the experiment.
Tumor xenografts, lungs, livers, kidneys and hearts of animals from different treatment groups were removed and subjected for histological analysis by staining of 5 μm paraffin embedded tissue slides with H&E, and examination by light microscope. […] Briefly, paraffin embedded blocks of tumors after different treatments were cut at 4 μm thickness and stained with ERK Abs, followed by second antibodies conjugated to peroxidase and DAB staining. Representative fields of each specimen were photographed at ×20 and ×40 magnifications.

T1 sequence (O95373 whole entry): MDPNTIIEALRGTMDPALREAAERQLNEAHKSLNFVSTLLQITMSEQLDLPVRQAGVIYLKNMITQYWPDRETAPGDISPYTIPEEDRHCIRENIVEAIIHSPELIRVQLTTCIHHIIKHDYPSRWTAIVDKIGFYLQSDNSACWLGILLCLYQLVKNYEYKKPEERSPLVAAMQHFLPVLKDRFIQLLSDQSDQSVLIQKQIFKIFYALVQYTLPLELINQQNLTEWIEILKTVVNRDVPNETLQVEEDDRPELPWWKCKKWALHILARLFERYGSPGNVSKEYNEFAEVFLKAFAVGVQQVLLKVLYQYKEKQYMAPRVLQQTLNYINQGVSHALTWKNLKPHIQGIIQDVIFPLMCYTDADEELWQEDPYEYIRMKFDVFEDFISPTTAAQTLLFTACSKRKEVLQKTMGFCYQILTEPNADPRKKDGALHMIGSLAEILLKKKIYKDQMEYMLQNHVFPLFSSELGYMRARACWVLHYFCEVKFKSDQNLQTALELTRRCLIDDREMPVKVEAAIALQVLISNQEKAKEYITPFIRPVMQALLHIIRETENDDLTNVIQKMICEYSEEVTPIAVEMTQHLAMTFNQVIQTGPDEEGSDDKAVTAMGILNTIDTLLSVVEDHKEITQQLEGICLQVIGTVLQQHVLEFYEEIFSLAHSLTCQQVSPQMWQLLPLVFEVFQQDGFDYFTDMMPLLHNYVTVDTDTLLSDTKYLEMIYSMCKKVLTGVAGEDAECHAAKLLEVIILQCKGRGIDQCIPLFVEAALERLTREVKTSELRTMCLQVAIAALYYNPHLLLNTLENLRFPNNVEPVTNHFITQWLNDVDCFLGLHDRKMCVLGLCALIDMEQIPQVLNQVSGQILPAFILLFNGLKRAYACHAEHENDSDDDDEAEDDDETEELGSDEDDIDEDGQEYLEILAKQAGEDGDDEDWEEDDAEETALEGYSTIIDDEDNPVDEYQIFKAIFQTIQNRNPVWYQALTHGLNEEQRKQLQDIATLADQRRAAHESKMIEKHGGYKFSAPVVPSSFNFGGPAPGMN

GQLNHILGILGEPEQED (Synthetic peptide (EPE)) [EPE peptide]
translocation of other MAPKs (JNK2, p38) (JNK2 and p38): affected neither the translocation of other MAPKs; also recorded: does not affect the nuclear translocation of JNK2 and p38
interaction of Imp7 with ERK [1]: prevented the interaction of Imp7 with ERK
NTS phosphorylation (by CK2) of ERK1/2 (ERK1/2; T47D, HeLa, MDA-MB-231 and A2352 cells): only slightly affected; also recorded: prevents ERK1/2's NTS
activatory ERK-TEY phosphorylation (ERK1/2; four distinct cell lines): no effect
downstream activity of RSK (RSK): no effect
activation of AKT in resistant melanoma cells (AKT; data not shown): No significant effects
basal or stimulated phosphorylation of AKT (AKT; shortly after stimulation or longer time periods after treatment): no effect on the basal or stimulated phosphorylation of AKT
time to complete eradication of melanoma xenograft [2]: ≤ 2 weeks
size or structure of the kidneys, livers and hearts [3]: did not affect
structure of the lungs [3]: not affected
